These results are taken from PubChem BioAssay (NCI).

SMILES strings stand for the structures. Values joined by “and” are separate entries in the source; they are usually repeats but may differ in a detail not shown here. Equal entries are not always repeated.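 Values below derive from 48-hour exposures of cells grown in 96-well plates, with endpoints linearly interpolated between the two concentrations bracketing the appropriate inhibition level. At the GI50, growth is halved. TGI: total growth inhibition.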

Test systems include A549 NSCLC; BT-549 breast; HCT-116 colon; HOP-92 NSCLC; IGROV1 ovarian; KM12 colon; LOX IMVI melanoma; OVCAR-4 ovarian; T-47D breast; UO-31 renal.
What all share (assay): NCI-60 cell line screen, 48 h

For the compound `O=C(O)[C@H](CCC[C@H]1C(=O)O[C@H](c2ccccc2)[C@H](c2ccccc2)N1C(=O)OCc1ccccc1)N[C@@H](c1ccccc1)[C@H](O)c1ccccc1`, the TGI in the experiment with A549 NSCLC is above 100 µM; with BT-549 breast, 78.9 µM; in the experiment with HCT-116 colon, 44.9 µM; with HOP-92 NSCLC, 49.5 µM; in the experiment with IGROV1 ovarian, above 100 µM; with KM12 colon it was 40.4 µM. Also, the TGI with LOX IMVI melanoma was 51.9 µM; in the experiment with OVCAR-4 ovarian, 75.9 µM; with T-47D breast it was above 100 µM; with UO-31 renal it was above 100 µM.

Turning to `O=c1[nH]c(NCc2ccc(Cl)cc2)nc2nc[nH]c12`, the TGI in the experiment with A549 NSCLC, in the experiment with BT-549 breast, in the experiment on HCT-116 colon, with HOP-92 NSCLC, in the experiment on IGROV1 ovarian and in the experiment with KM12 colon was above 100 µM each time. Besides, the TGI in the experiment with LOX IMVI melanoma, in the experiment with OVCAR-4 ovarian, in the experiment with T-47D breast and with UO-31 renal was above 100 µM each time.

`CC(Oc1ccccc1)C(=O)NNC(=O)OC(C)(C)C` (configuration not stated): the TGI in the experiment on A549 NSCLC, in the experiment on BT-549 breast, in the experiment on HCT-116 colon, with HOP-92 NSCLC, in the experiment on IGROV1 ovarian and in the experiment with KM12 colon was above 100 µM throughout. For the same compound, the TGI in the experiment on LOX IMVI melanoma, in the experiment with OVCAR-4 ovarian, in the experiment with T-47D breast and in the experiment on UO-31 renal was above 100 µM each time.

With `CC(C)=CC(=O)c1[nH]c2ccccc2c1CC(=O)NCCc1cncn1C`, the TGI with A549 NSCLC, in the experiment on BT-549 breast, with HCT-116 colon, in the experiment on HOP-92 NSCLC, with IGROV1 ovarian and in the experiment with KM12 colon was above 100 µM each time. Further, the TGI with LOX IMVI melanoma is above 100 µM; in the experiment on OVCAR-4 ovarian it was above 100 µM; in the experiment on T-47D breast, above 100 µM; with UO-31 renal, 47.6 µM.

Turning to `Br[C@@H]1[C@H]2c3nc4ccccc4nc3[C@@H]1C[C@H]2Br`, the TGI with A549 NSCLC, in the experiment with BT-549 breast, in the experiment with HCT-116 colon, in the experiment with HOP-92 NSCLC, in the experiment with IGROV1 ovarian and in the experiment with KM12 colon was above 100 µM in each case. Besides, the TGI in the experiment with LOX IMVI melanoma, in the experiment on OVCAR-4 ovarian, in the experiment on T-47D breast and in the experiment with UO-31 renal was above 100 µM throughout.

Take `CC(=O)OCC1OC(n2c(S)c(C#N)c(-c3ccccc3)c(C#N)c2=O)C(OC(C)=O)C(OC(C)=O)C1OC(C)=O` (configuration not stated): the TGI with A549 NSCLC was above 100 µM; in the experiment with BT-549 breast, > 100 µM and 59.1 µM; in the experiment with HCT-116 colon it was above 100 µM; in the experiment with HOP-92 NSCLC, 59.9 µM and 99.2 µM; with IGROV1 ovarian it was above 100 µM; with KM12 colon it was > 100 µM and 52 µM. For the same compound, the TGI with LOX IMVI melanoma is > 100 µM and 31 µM; with OVCAR-4 ovarian, > 100 µM and 83.3 µM; with T-47D breast, > 100 µM and 54.4 µM; in the experiment on UO-31 renal it was > 100 µM and 87.3 µM. The GI50 in the experiment with BT-549 breast is > 66.8 µM and 21.1 µM; in the experiment on HCT-116 colon, > 100 µM and 39.3 µM; with KM12 colon, > 100 µM and 21.8 µM; in the experiment on LOX IMVI melanoma it was > 100 µM and 17.2 µM; in the experiment with OVCAR-4 ovarian, > 100 µM and 30.6 µM; in the experiment on T-47D breast, > 100 µM and 18.6 µM. For the same compound, the GI50 with UO-31 renal was > 68.1 µM and 29.1 µM.

For the compound `C(=Nc1ccc(-c2nc3ccccc3s2)cc1)c1ccc[nH]1`, the TGI is above 100 µM in the experiment with A549 NSCLC; 46.2 µM in the experiment on BT-549 breast; 29.9 µM with HCT-116 colon; 40.1 µM in the experiment on HOP-92 NSCLC; 40.6 µM with IGROV1 ovarian; 71.3 µM in the experiment with KM12 colon. Also, the TGI with LOX IMVI melanoma was 33.3 µM; in the experiment with OVCAR-4 ovarian, 89.7 µM; in the experiment on T-47D breast, 47.3 µM; in the experiment on UO-31 renal, 53.5 µM.

As for `Nc1nc(Cl)c(Cl)c(NCC2(O)CCC2)n1`, the TGI with A549 NSCLC, with BT-549 breast, with HCT-116 colon, in the experiment with HOP-92 NSCLC, with IGROV1 ovarian and in the experiment with KM12 colon was above 100 µM throughout. Further, the TGI was above 100 µM with LOX IMVI melanoma, 69 µM in the experiment on OVCAR-4 ovarian, 64.2 µM in the experiment on T-47D breast and above 100 µM in the experiment with UO-31 renal.

Regarding `Cc1ccc(C2(c3ccc(F)cc3)OC(=O)c3ccccc32)c(O)c1` (configuration not stated), the TGI in the experiment with A549 NSCLC turned out to be 47.2 µM; in the experiment with BT-549 breast, 44.6 µM; with HCT-116 colon it was 26.2 µM; in the experiment on HOP-92 NSCLC, 34.9 µM; with IGROV1 ovarian, 34 µM; with KM12 colon, 51.6 µM. Also, the TGI in the experiment with LOX IMVI melanoma worked out at 26.9 µM; in the experiment with OVCAR-4 ovarian, 41.1 µM; in the experiment with T-47D breast it was 28.1 µM; in the experiment with UO-31 renal it was 22.4 µM.

Turning to `Cc1ccc2c(c1)nc1n2C(N)=Nc2ccccc2S1`, the TGI with A549 NSCLC, with BT-549 breast, in the experiment with HCT-116 colon, with HOP-92 NSCLC, in the experiment on IGROV1 ovarian and in the experiment with KM12 colon was above 100 µM each time. The TGI with LOX IMVI melanoma, in the experiment on OVCAR-4 ovarian, in the experiment on T-47D breast and in the experiment with UO-31 renal was above 100 µM throughout.

For the compound `CC1(C)COC2=C(C1)C(=O)c1ccccc1C2=O`, the TGI with A549 NSCLC came out at 4.76 µM; with BT-549 breast it was 3.66 µM; in the experiment with HCT-116 colon, 1.7 µM; in the experiment on HOP-92 NSCLC, 3.85 µM; in the experiment with IGROV1 ovarian, 3.45 µM; in the experiment on KM12 colon it was 3.23 µM. Moreover, the TGI with LOX IMVI melanoma was found to be 4.22 µM; in the experiment with OVCAR-4 ovarian, 2.9 µM; in the experiment with T-47D breast, 2.44 µM; in the experiment on UO-31 renal, 2.21 µM.

Consider `O=c1c(Cc2ccc(Cl)cc2)nnc2sc(-c3ccc(-c4ccc(Cl)cc4Cl)o3)nn12`, for which the TGI in the experiment on A549 NSCLC, with BT-549 breast, with HCT-116 colon, in the experiment on HOP-92 NSCLC, in the experiment with IGROV1 ovarian and in the experiment on KM12 colon was above 100 µM throughout. For the same compound, the TGI in the experiment with LOX IMVI melanoma, in the experiment with OVCAR-4 ovarian, in the experiment with T-47D breast and with UO-31 renal was above 100 µM each time.

Turning to `CCc1c(-c2ccc(OC)cc2)oc(OC)c(C)c1=O`, the TGI with A549 NSCLC, in the experiment on BT-549 breast, in the experiment on HCT-116 colon, in the experiment with HOP-92 NSCLC, in the experiment on IGROV1 ovarian and with KM12 colon was above 100 µM each time. The TGI in the experiment on LOX IMVI melanoma, with OVCAR-4 ovarian, with T-47D breast and in the experiment on UO-31 renal was above 100 µM throughout.

Turning to `C/C(=N\Nc1nc2ccccc2s1)c1cc2ccccc2cn1`, the TGI in the experiment on A549 NSCLC was above 100 µM; in the experiment on BT-549 breast, 45.8 µM; in the experiment on HCT-116 colon it was 10.6 µM; in the experiment on HOP-92 NSCLC it was 93.6 µM; in the experiment with IGROV1 ovarian, 16 µM; in the experiment on KM12 colon, 94.4 µM. Also, the TGI is 10.4 µM with LOX IMVI melanoma, 62.2 µM with OVCAR-4 ovarian, 23.2 µM in the experiment with T-47D breast and 14.8 µM in the experiment with UO-31 renal.

For the compound `COc1cc2c(cc1OC)C(=O)/C(=C/c1cc(C)cc(C)c1)C2`, the TGI was 18 µM with A549 NSCLC; 60.4 µM in the experiment on BT-549 breast; 11.6 µM with HCT-116 colon; above 100 µM in the experiment with HOP-92 NSCLC; above 42.4 µM in the experiment on IGROV1 ovarian; 13.5 µM in the experiment on KM12 colon. In addition, the TGI was above 96.8 µM with LOX IMVI melanoma, above 100 µM in the experiment with OVCAR-4 ovarian, 45.6 µM with T-47D breast and above 100 µM with UO-31 renal.

With `O=C(/C(=C\I)c1ccccc1)c1ccccc1`, the TGI with A549 NSCLC amounted to 49.2 µM; in the experiment with BT-549 breast it was 30.3 µM; with HCT-116 colon it was 26.2 µM; with HOP-92 NSCLC, 28.2 µM; in the experiment on IGROV1 ovarian, 26.3 µM; in the experiment with KM12 colon, 8.09 µM. The TGI with LOX IMVI melanoma is 29.9 µM; in the experiment with OVCAR-4 ovarian, 17.7 µM; in the experiment with T-47D breast, 6.02 µM; in the experiment with UO-31 renal, 20.2 µM.

For `c1ccc2c(c1)cc1n2CCc2c-1[nH]c1ccccc21`, the TGI in the experiment with A549 NSCLC, in the experiment with BT-549 breast, in the experiment with HCT-116 colon, with HOP-92 NSCLC, in the experiment with IGROV1 ovarian and in the experiment with KM12 colon was above 10 µM in each case. The TGI in the experiment with LOX IMVI melanoma, in the experiment on OVCAR-4 ovarian, in the experiment on T-47D breast and in the experiment on UO-31 renal was above 10 µM in each case.

On to `CCCCOC(=O)C1CC[C@H]2[C@@H]3CCc4cc(OC(=O)c5cccc6c(=O)c7ccccc7[nH]c56)ccc4[C@H]3CC[C@]12C` (some centres not stated), for which the TGI came out at 17.6 µM with A549 NSCLC; 15 µM in the experiment with BT-549 breast; 17.1 µM in the experiment on HCT-116 colon; 16.5 µM with HOP-92 NSCLC; 14.9 µM in the experiment on IGROV1 ovarian; 17 µM with KM12 colon. The TGI was 17.1 µM in the experiment with LOX IMVI melanoma, 14.5 µM in the experiment on OVCAR-4 ovarian, 14.1 µM with T-47D breast and 14.9 µM in the experiment on UO-31 renal.

In the case of `Cc1ccc2nc(-c3ccc(C(C)(C)C)cc3)oc(=O)c2c1`, the TGI in the experiment on A549 NSCLC is above 100 µM; with BT-549 breast, 57.3 µM; with HCT-116 colon, 51.9 µM; in the experiment with HOP-92 NSCLC it was 63.2 µM; in the experiment on IGROV1 ovarian, 87.6 µM; in the experiment with KM12 colon, 20.3 µM. Moreover, the TGI came out at 32.3 µM with LOX IMVI melanoma, 90.3 µM with OVCAR-4 ovarian, 83.4 µM in the experiment with T-47D breast and 70 µM in the experiment on UO-31 renal.

On to `O=C1C(c2c(O)[nH]c3ccc(Br)cc23)=Nc2ccc(Br)cc21`, for which the TGI with A549 NSCLC is above 100 µM; with BT-549 breast, above 100 µM; in the experiment with HCT-116 colon, 34.6 µM; in the experiment on HOP-92 NSCLC, above 100 µM; in the experiment with IGROV1 ovarian, above 100 µM; with KM12 colon it was above 100 µM. Also, the TGI in the experiment with LOX IMVI melanoma, in the experiment on OVCAR-4 ovarian, with T-47D breast and in the experiment on UO-31 renal was above 100 µM throughout.
